The text below walks through data of article PMC10541198, “Specific quinone reductase 2 inhibitors reduce metabolic burden and reverse Alzheimer’s disease phenotype in mice” (The Journal of Clinical Investigation, 2023).

Several values for one entry are separate records, joined by “and”; a condition that tells them apart may be missing. Equal entries are not always repeated. Entries after “also recorded” stand apart in the source; their conditions may differ.

The test system of one data set is CD73. The data set is described as follows: Immunoblot of CD73 in HCT116 cells after 4-day treatment. It counts as cell-based, human. The settings on record: 2 μM, 4 days. As to the method:
To establish direct target engagement and cell membrane permeability, a cellular thermal shift assay (CETSA) was carried out, using leading QR2is YB’s-537, 800, and 808. Following a 1 hour preincubation with 5 μM of the QR2is or vehicle, thermal aggregation curves (Taggs) of QR2 expressed in HEK293T were measured in increasing temperatures. All QR2is increased QR2 thermal stability compared with vehicle (Supplemental Figure 2A). Based on the Tagg curves we selected 73°C for isothermal dose-response fingerprint (IDTRF) experiments (Supplemental Figure 2B). The ITDRF allowed the relative quantification of the binding of each of the QR2is to QR2, measured as the EC50 (Figure 3A). […] We evaluated the safety of the QR2is using cell toxicity and viability assays. […] Cell viability was assessed by XTT assay in HEK239T cells, using a dose response, with 3- or 24-hour incubations of the leading QR2is. […] We then assessed WT HCT116 cells by immunoblot (Supplemental Figure 2, C and D), after being treated with YB-800 (2 μM) for 4 consecutive days. […]
The cells wer e har ves t ed a nd resuspended in 1% cl ear m e di um ( DM EM – with no phenol red, suppl em ent ed with 1% FBS, 1% L-Glutamine and 1% Penicillin-Streptomycin). […] The plate wa s then incubated in the dark at 37°C f or 3 h, before reading in a Tecan M200 Pro florescence microplate reader, using wavelengths Ex/Em = 485 nm / 535 nm . […]

Data set [1] can be described thus: Solubility in water / saline. It counts as physicochemical.

For `Cc1ccc(-c2cn3cccc(C)c3n2)cc1S(=O)(=O)N1CCC(C)CC1` [YB-800], the “CD73 expression (replicates)” value in the data set with CD73 is 1.393 and 1.4862 and 1.532 and 1.811 and 1.4595 and 1.188.
For the molecule `Cc1ccc(-c2cn3cccc(C)c3n2)cc1S(=O)(=O)N1CCNCC1` [YB-537], in data set [1], the solubility in water result is on record as “complete solution; also recorded: water soluble”. Also, the “solubility in saline vehicle” value in data set [1] (PK formulations 2 and 10 mg/ml, HCl salt) is “fully dissolved”.
